Measured values: patent US7465724B2, “Bis-pyrrolo[2,1-c][1,4]benzodiazepine-anthraquinone conjugates and a process for the preparation thereof” (Council of Scientific and Industrial Research, priority 2006, dated 2008)

How the values were obtained:
Type in all cases: cell-based, human
Details in all cases: 48 h continuous drug exposure; dose to inhibit cell growth by 50% vs untreated cell controls
[1] = test system: SiHa; assay: In vitro cytotoxicity, SRB assay, SiHa
Procedure: (§1) Cytotoxicity: Compounds Va-c have been evaluated for the primary anticancer activity in selected human cancer cell lines. For each compound, dose response curves against each cell line were measured at a minimum of five concentrations at 10 fold dilutions. A protocol of 48 h continuous drug exposure was used and a sulforhodamine B (SRB) protein assay was used to estimate cell viability or growth. The concentration causing 50% cell growth inhibition compared with the control has been calculated.

[2] = test system: PC3; assay: In vitro cytotoxicity, SRB assay, PC3
Procedure: as §1

[3] = test system: Colo205; assay: In vitro cytotoxicity, SRB assay, Colo205
Procedure: as §1

[4] = test system: MCF7; assay: In vitro cytotoxicity, SRB assay, MCF7
Procedure: as §1

[5] = test system: A2780; assay: In vitro cytotoxicity, SRB assay, A2780
Procedure: as §1

[6] = test system: Hop62; assay: In vitro cytotoxicity, SRB assay, Hop62
Procedure: as §1

[7] = test system: ZR-75-1; assay: In vitro cytotoxicity, SRB assay, ZR-75-1
Procedure: as §1

Question: With `COc1cc2c(cc1OCCCCOc1ccc(OCCCCOc3cc4c(cc3OC)C(=O)N3CCC[C@H]3C=N4)c3c1C(=O)c1ccccc1C3=O)N=C[C@@H]1CCCN1C2=O` [Vb, 1,4-Bis-{4-[7-methoxy-8-oxy-(11aS)-1,2,3,11atetrahydro-5H-pyrrolo [2,1-c][1,4]benzodiazepin-5-one]butyloxy}anthracene-9,10-dione] as the molecule, how does the IC50 [1] read?
Answer: 9000 nM

Question: And the IC50 [2]?
Answer: 7000 nM

Question: What about the IC50 [3] of the same molecule?
Answer: 10000 nM

Question: What about the IC50 [4] of the same molecule?
Answer: 9000 nM

Question: And the IC50 [5]?
Answer: 10000 nM

Question: `COc1cc2c(cc1OCCCCCOc1ccc(OCCCCCOc3cc4c(cc3OC)C(=O)N3CCC[C@H]3C=N4)c3c1C(=O)c1ccccc1C3=O)N=C[C@@H]1CCCN1C2=O` [Vc, 1,4-Bis-{5-[7-methoxy-8-oxy-(11aS)-1,2,3,11atetrahydro-5H-pyrrolo [2,1-c][1,4]benzodiazepin-5-one]pentyloxy}anthracene-9,10-dione] was tested. Which IC50 [6] did it give?
Answer: 1400 nM

Question: What about the IC50 [7] of the same molecule?
Answer: 1500 nM

Question: What about the IC50 [1] of the same molecule?
Answer: 800 nM

Question: What about the IC50 [2] of the same molecule?
Answer: 1000 nM

Question: And the IC50 [3]?
Answer: < 1000 nM

Question: And the IC50 [4]?
Answer: 1200 nM

Question: And the IC50 [5]?
Answer: 600 nM

Question: With `COc1cc2c(cc1OCCCOc1ccc(OCCCOc3cc4c(cc3OC)C(=O)N3CCC[C@H]3C=N4)c3c1C(=O)c1ccccc1C3=O)N=C[C@@H]1CCCN1C2=O` [Va, 1,4-Bis-{3-[7-methoxy-8-oxy-(11aS)-1,2,3,11atetrahydro-5H-pyrrolo [2,1-c][1,4]-benzodiazepin-5-one]propyloxy}anthracene-9,10-dione] as the molecule, how does the IC50 [6] read?
Answer: < 1000 nM

Question: And the IC50 [7]?
Answer: 500 nM

Question: What about the IC50 [1] of the same molecule?
Answer: 800 nM

Question: And the IC50 [2]?
Answer: 600 nM

Question: What about the IC50 [3] of the same molecule?
Answer: < 1000 nM

Question: And the IC50 [4]?
Answer: 600 nM

Question: What about the IC50 [5] of the same molecule?
Answer: 600 nM
